# Experimental data published in patent publication US11718622B2, “Heterocyclic adenosine receptor antagonists” (Exelixis, Inc., priority 2020, dated 2023).
# Assays:
# [1] = target: Adenosine A2a (ADORA2A) receptor (Homo sapiens (Human), UniProt P29274); experiment: ADORA2A Receptor Binding Assay; conditions: radioligand binding, membrane stock
# Procedure: ADORA1A and ADORA2A Receptor Binding Assay
# 2 μL of each compound (test compounds, high control compound, low control compound) was transferred into individual wells of an assay plate. Also to each individual well, 98 μL of Adenosine A1a membrane stock (for ADORA1A Receptor Binding Assay) or Adenosine A2a membrane stock (for ADORA2A Receptor Binding Assay) was dispensed, followed by 100 μL of radio-labeled ligand. Plates were then sealed, and incubated at room temperature for 1 hour (for ADORA1A Receptor Binding Assay) or 2 hours (for ADORA2A Receptor Binding Assay). Unifilter-96 GF/C filter plates were pre-soaked with 50 μL of 0.3% PEI per well for at least 30 min at room temperature. When binding assays were completed, reaction mixtures were filtered through GF/C plates using a Perkin Elmer Filtermate Harvester, and then each plate was washed 4× with cold wash buffer. Filter plates were then dried for 1 hour at 50° C. After drying, the bottom of the filter plate wells was sealed using Perkin Elmer Unifilter-96 backing seal tape. 50 μL of Perkin Elmer Microscint 20 cocktail was then added, and the top of the filter plate was then sealed using Perkin Elmer TopSeal-A sealing film. ^3H trapped on the filter was counted using a Perkin Elmer MicroBeta2 Reader. Data analysis was performed using GraphPad Prism 5 software, and the “Inhibition [% Control]” was calculated using the following equation: % Inh=(1−Background subtracted Assay value/Background subtracted HC value)*100.
# [2] = target: Adenosine A2B (ADORA2B) receptor (Homo sapiens (Human), UniProt P29275); experiment: ADORA2B Receptor Binding Assay; conditions: radioligand binding, membrane stock
# Procedure: ADORA2B Receptor Binding Assay
# 100 μL of Adenosine A2B membrane stock was dispensed into individual wells of an assay plate. 1 μL of each compound (test compounds, high control compound, low control compound) was then transferred into individual wells, followed by 100 μL of radio-labeled ligand. Plates were then sealed, and incubated at room temperature for 1 hour. Unifilter-96 GF/C filter plates were pre-soaked with 50 μL of 0.5% BSA per well for at least 30 min at room temperature. When binding assays were completed, reaction mixtures were filtered through GF/C plates using a Perkin Elmer Filtermate Harvester, and then each plate was washed 4× with cold wash buffer. Filter plates were then dried for 1 hour at 50° C. After drying, the bottom of the filter plate wells was sealed using Perkin Elmer Unifilter-96 backing seal tape. 50 μL of Perkin Elmer Microscint 20 cocktail was then added, and the top of the filter plate was then sealed using Perkin Elmer TopSeal-A sealing film. ^3H trapped on the filter was counted using a Perkin Elmer MicroBeta2 Reader. Data analysis was performed using GraphPad Prism 5 software, and the “Inhibition[% Control]” was calculated using the following equation: % Inh=(1−Background subtracted Assay value/Background subtracted HC value)*100.
# Sequence of Adenosine A2B (ADORA2B) receptor (P29275 whole entry): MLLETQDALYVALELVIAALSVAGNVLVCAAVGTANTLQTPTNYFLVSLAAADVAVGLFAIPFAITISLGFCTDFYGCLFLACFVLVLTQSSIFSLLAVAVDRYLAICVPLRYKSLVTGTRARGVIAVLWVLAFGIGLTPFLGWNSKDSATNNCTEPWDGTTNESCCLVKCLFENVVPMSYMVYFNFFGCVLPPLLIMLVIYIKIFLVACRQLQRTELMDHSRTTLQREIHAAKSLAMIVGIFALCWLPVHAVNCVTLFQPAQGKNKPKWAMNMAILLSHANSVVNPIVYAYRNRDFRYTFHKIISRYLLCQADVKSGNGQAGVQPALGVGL
# Sequence of Adenosine A2a (ADORA2A) receptor (P29274 whole entry): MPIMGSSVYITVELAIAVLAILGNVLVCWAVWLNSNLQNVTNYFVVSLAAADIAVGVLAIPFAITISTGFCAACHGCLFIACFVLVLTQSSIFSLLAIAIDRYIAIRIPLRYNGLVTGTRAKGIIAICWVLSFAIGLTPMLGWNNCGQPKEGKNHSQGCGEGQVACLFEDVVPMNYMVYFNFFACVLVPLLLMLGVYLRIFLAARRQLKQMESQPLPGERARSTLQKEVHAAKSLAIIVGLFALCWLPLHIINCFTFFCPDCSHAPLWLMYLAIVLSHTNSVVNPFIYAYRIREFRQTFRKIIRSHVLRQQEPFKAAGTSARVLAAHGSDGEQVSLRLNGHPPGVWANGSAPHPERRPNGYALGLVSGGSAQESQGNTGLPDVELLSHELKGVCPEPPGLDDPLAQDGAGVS
structure (smiles),measurement,setting,value
"COc1ccc(-c2nc(N)cc3nc(C)nn23)cc1 [Compound 115, 5-(4-methoxyphenyl)-2-methyl-[1,2,4]triazolo[1,5-c]pyrimidin-7-amine]",IC50,[1],0.1 to 1 µM
same,IC50,[2],> 1 µM
"CNC(=O)Nc1cc2nc(C)nn2c(-c2ccc(F)c(F)c2)n1 [Compound 140, 1-[5-(3,4-difluorophenyl)-2-methyl-[1,2,4]triazolo[1,5-c]pyrimidin-7-yl]-3-methylurea]",IC50,[1],0.01 to 0.1 µM
same,IC50,[2],0.1 to 1 µM
"CNC(=O)Nc1cn2cc(C)nc2c(-c2ccco2)n1 [Compound 217, 1-[8-(furan-2-yl)-2-methylimidazo[1,2-a]pyrazin-6-yl]-3-methylurea]",IC50,[1],0.01 to 0.1 µM
same,IC50,[2],0.01 to 0.1 µM
"Cc1ccc(-c2nc(NC(=O)C3CC3)cc3nc(C4CNC4)nn23)o1 [Compound 164, N-[2-(azetidin-3-yl)-5-(5-methylfuran-2-yl)-[1,2,4]triazolo[1,5-c]pyrimidin-7-yl]cyclopropanecarboxamide]",IC50,[1],0.01 to 0.1 µM
same,IC50,[2],> 1 µM
"Cc1ccc(-c2nc(N)cn3cc(C(F)(F)F)nc23)o1 [Compound 195, 8-(5-methylfuran-2-yl)-2-(trifluoromethyl)imidazo[1,2-a]pyrazin-6-amine]",IC50,[1],0.01 to 0.1 µM
same,IC50,[2],0.1 to 1 µM
"CCNC(=O)Nc1cc2nc(C)nn2c(-c2ccco2)n1 [Compound 155, 1-ethyl-3-[5-(furan-2-yl)-2-methyl-[1,2,4]triazolo[1,5-c]pyrimidin-7-yl]urea]",IC50,[1],0.01 to 0.1 µM
same,IC50,[2],0.01 to 0.1 µM
"Cc1nc2c(Cl)c(N)nc(-c3cccc(Cl)c3)n2n1 [Compound 78, 8-chloro-5-(3-chlorophenyl)-2-methyl-[1,2,4]triazolo[1,5-c]pyrimidin-7-amine]",IC50,[1],< 0.01 µM
same,IC50,[2],0.01 to 0.1 µM
"CC(C)c1nc2c(-c3ccco3)nc(NC(=O)C3CC3)cn2n1 [Compound 181, N-[8-(furan-2-yl)-2-propan-2-yl-[1,2,4]triazolo[1,5-a]pyrazin-6-yl]cyclopropanecarboxamide]",IC50,[1],< 0.01 µM
same,IC50,[2],< 0.01 µM
"Cc1cncc(-c2nc(N)c(Cl)c3nc(C)nn23)c1 [Compound 57, 8-chloro-2-methyl-5-(5-methylpyridin-3-yl)-[1,2,4]triazolo[1,5-c]pyrimidin-7-amine]",IC50,[1],> 1 µM
same,IC50,[2],> 1 µM
"Cc1nc2c(nc(-c3ccc(C)o3)n3nc(C(C)C)nc23)[nH]1 [Compound 120, 2-methyl-5-(5-methylfuran-2-yl)-8-propan-2-yl-3H-[1,2,4]triazolo[5,1-f]purine]",IC50,[1],< 0.01 µM
same,IC50,[2],0.01 to 0.1 µM
"Cc1ccc(-c2nc3[nH]c(C(C)(C)O)cc3c3nc(C(F)(F)F)nn23)o1 [Compound 147, 2-[7-(5-methylfuran-2-yl)-4-(trifluoromethyl)-3,5,6,8,10-pentazatricyclo[7.3.0.0^2,6]dodeca-1(9),2,4,7,11-pentaen-11-yl]propan-2-ol]",IC50,[1],< 0.01 µM
same,IC50,[2],< 0.01 µM
"Cc1nc2c(-c3ccccc3)nc(N)c(Br)n2n1 [Compound 172, 5-bromo-2-methyl-8-phenyl-[1,2,4]triazolo[1,5-a]pyrazin-6-amine]",IC50,[1],< 0.01 µM
same,IC50,[2],< 0.01 µM
"Cc1nc2cc(NC(=O)C3CC3)nc(-c3ccc(S(=O)(=O)N(C)C)cc3)n2n1 [Compound 116, N-[5-[4-(dimethylsulfamoyl)phenyl]-2-methyl-[1,2,4]triazolo[1,5-c]pyrimidin-7-yl]cyclopropanecarboxamide]",IC50,[1],> 1 µM
same,IC50,[2],> 1 µM
"CC(=O)Nc1cn2cc(C)nc2c(-c2ccc(C)o2)n1 [Compound 205, N-[2-methyl-8-(5-methylfuran-2-yl)imidazo[1,2-a]pyrazin-6-yl]acetamide]",IC50,[1],< 0.01 µM
same,IC50,[2],0.01 to 0.1 µM
"Cc1nc2cc(NC(=O)NCCN3CCCCC3)nc(-c3ccco3)n2n1 [Compound 158, 1-[5-(furan-2-yl)-2-methyl-[1,2,4]triazolo[1,5-c]pyrimidin-7-yl]-3-(2-piperidin-1-ylethyl)urea]",IC50,[1],< 0.01 µM
same,IC50,[2],0.01 to 0.1 µM
"CCCC(=O)Nc1cn2cc(C)nc2c(-c2ccco2)n1 [Compound 222, N-[8-(furan-2-yl)-2-methylimidazo[1,2-a]pyrazin-6-yl]butanamide]",IC50,[1],0.01 to 0.1 µM
same,IC50,[2],0.1 to 1 µM
"Cc1nc2cc(NC(=O)C(F)F)nc(-c3ccco3)n2n1 [Compound 144, 2,2-difluoro-N-[5-(furan-2-yl)-2-methyl-[1,2,4]triazolo[1,5-c]pyrimidin-7-yl]acetamide]",IC50,[1],< 0.01 µM
same,IC50,[2],< 0.01 µM
"Cc1nc2cc(NC(=O)C3COC3)nc(-c3ccc(C)o3)n2n1 [Compound 60, N-[2-methyl-5-(5-methylfuran-2-yl)-[1,2,4]triazolo[1,5-c]pyrimidin-7-yl]oxetane-3-carboxamide]",IC50,[1],< 0.01 µM
same,IC50,[2],0.01 to 0.1 µM
"Cc1nc2cc(NC(=O)NC(C)C)nc(-c3ccco3)n2n1 [Compound 163, 1-[5-(furan-2-yl)-2-methyl-[1,2,4]triazolo[1,5-c]pyrimidin-7-yl]-3-propan-2-ylurea]",IC50,[1],< 0.01 µM
same,IC50,[2],0.01 to 0.1 µM
"Cc1ccc(-c2nc(NC(=O)C3CC3)cn3c(C)cnc23)o1 [Compound 196, N-[3-methyl-8-(5-methylfuran-2-yl)imidazo[1,2-a]pyrazin-6-yl]cyclopropanecarboxamide]",IC50,[1],0.01 to 0.1 µM
same,IC50,[2],0.01 to 0.1 µM
"Cc1ccc(-c2nc(NC(=O)C3CC3)cc3nc(C(F)(F)F)nn23)o1 [Compound 20, N-[5-(5-methylfuran-2-yl)-2-(trifluoromethyl)-[1,2,4]triazolo[1,5-c]pyrimidin-7-yl]cyclopropanecarboxamide]",IC50,[1],< 0.01 µM
same,IC50,[2],< 0.01 µM
"Cc1nc2cc(NC(=O)[C@@H]3CCCN3)nc(-c3ccc(C)o3)n2n1 [Compound 9, (2S)-N-[2-methyl-5-(5-methylfuran-2-yl)-[1,2,4]triazolo[1,5-c]pyrimidin-7-yl]pyrrolidine-2-carboxamide]",IC50,[1],0.01 to 0.1 µM
"Cc1nc2c3c(nc(-c4ccc(C)o4)n2n1)NCC3(C)C [Compound 28, 4,12,12-trimethyl-7-(5-methylfuran-2-yl)-3,5,6,8,10-pentazatricyclo[7.3.0.0^2,6]dodeca-1(9),2,4,7-tetraene]",IC50,[1],0.01 to 0.1 µM
same,IC50,[2],0.1 to 1 µM
"CC(=O)Nc1cc2nc(C(C)C)nn2c(-c2cnco2)n1 [Compound 49, N-[5-(1,3-oxazol-5-yl)-2-propan-2-yl-[1,2,4]triazolo[1,5-c]pyrimidin-7-yl]acetamide]",IC50,[1],0.01 to 0.1 µM
same,IC50,[2],0.1 to 1 µM
"Cc1nc2c(Cl)c(N)nc(-c3ccc(C)o3)n2n1 [Compound 11, 8-chloro-2-methyl-5-(5-methylfuran-2-yl)-[1,2,4]triazolo[1,5-c]pyrimidin-7-amine]",IC50,[1],< 0.01 µM
same,IC50,[2],< 0.01 µM
"CC(=O)Nc1cc2nc(C)nn2c(-c2cnco2)n1 [Compound 51, N-(2-methyl-5-(oxazol-5-yl)-[1,2,4]triazolo[1,5-c]pyrimidin-7-yl)acetamide]",IC50,[1],0.1 to 1 µM
same,IC50,[2],> 1 µM
"CC(=O)Nc1cc2nc(CF)nn2c(-c2ccc(C)o2)n1 [Compound 127, N-[2-(fluoromethyl)-5-(5-methylfuran-2-yl)-[1,2,4]triazolo[1,5-c]pyrimidin-7-yl]acetamide]",IC50,[1],< 0.01 µM
same,IC50,[2],< 0.01 µM
"Cc1ccc(-c2nc(NC(=O)C3CC3)cn3cc(C(=O)O)nc23)o1 [Compound 194, 6-(cyclopropanecarbonylamino)-8-(5-methylfuran-2-yl)imidazo[1,2-a]pyrazine-2-carboxylic acid]",IC50,[1],> 1 µM
"Cc1nc2cc(NC(=O)[C@H]3CCCN3)nc(-c3ccc(C)o3)n2n1 [Compound 17, (2R)-N-[2-methyl-5-(5-methylfuran-2-yl)-[1,2,4]triazolo[1,5-c]pyrimidin-7-yl]pyrrolidine-2-carboxamide]",IC50,[1],< 0.01 µM
"CCOC(=O)c1cn2cc(NC(=O)C3CC3)nc(-c3ccc(C)o3)c2n1 [Compound 193, ethyl 6-(cyclopropanecarbonylamino)-8-(5-methylfuran-2-yl)imidazo[1,2-a]pyrazine-2-carboxylate]",IC50,[1],0.01 to 0.1 µM
"Cc1ccc(-c2nc(N)cn3ccnc23)o1 [Compound 191, 8-(5-methylfuran-2-yl)imidazo[1,2-a]pyrazin-6-amine]",IC50,[1],0.1 to 1 µM
"Cc1nc2c(Br)c(NC(=O)C3CC3)nc(-c3ccco3)n2n1 [Compound 31, N-[8-bromo-5-(furan-2-yl)-2-methyl-[1,2,4]triazolo[1,5-c]pyrimidin-7-yl]cyclopropanecarboxamide]",IC50,[1],0.01 to 0.1 µM
